This is an account of results in the NIST ThermoML archive (doi:10.1016/j.jct.2011.10.002).

For the data set the following is noted: 298.15 K, 101.33 kPa, Liquid; for speed of sound: Sing-around technique in a fixed-path interferometer; for mass density: Vibrating tube method.

Numbers after ± are expanded uncertainties.

Regarding `Cc1ccccc1N` [2-methylaniline], the speed of sound (in general, how fast a sound wave travels through the sample) came out at 1602.6 ± 1.3 m/s and the mass density (as a rule, the mass of a sample divided by its volume) stood at 994.351 ± 0.23 kg/m3.
`Cc1ccccn1` [2-methylpyridine]: the speed of sound came to 1380.1 ± 2.1 m/s and the mass density came to 939.802 ± 0.77 kg/m3.
The matching figures for `Cc1cccnc1` [3-methylpyridine]: 1424 ± 1.2 m/s and 952.002 ± 0.23 kg/m3.
Taken in the same sequence, the figures for `Cc1ccncc1` [4-methylpyridine] were 1431.5 ± 1.2 m/s and 950.179 ± 0.23 kg/m3.
`C1CCOCC1` [tetrahydropyran]: the speed of sound worked out at 1269.9 ± 2.1 m/s and the mass density was determined as 879.136 ± 0.7 kg/m3.
